Source: ChEMBL document CHEMBL1146269, “Intermediate analogue inhibitors of mandelate racemase: N-Hydroxyformanilide and cupferron” (Bioorg Med Chem Lett, 2007)

Experiments:
[1] = biological target: T1, Mandelate racemase (Pseudomonas putida, UniProt P11444); experiment: Inhibition of mandelate racemase in Pseudomonas putida
T1 sequence (P11444 whole entry): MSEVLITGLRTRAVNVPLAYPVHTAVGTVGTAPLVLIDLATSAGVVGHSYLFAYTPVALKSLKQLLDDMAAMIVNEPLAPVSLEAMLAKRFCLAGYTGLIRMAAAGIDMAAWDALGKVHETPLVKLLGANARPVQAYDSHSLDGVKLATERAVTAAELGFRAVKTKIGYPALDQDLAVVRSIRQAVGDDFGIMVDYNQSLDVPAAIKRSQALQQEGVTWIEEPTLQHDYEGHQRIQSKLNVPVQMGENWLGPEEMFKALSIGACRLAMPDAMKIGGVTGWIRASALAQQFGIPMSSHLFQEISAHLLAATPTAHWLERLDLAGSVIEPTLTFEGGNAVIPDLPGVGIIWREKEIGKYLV

[2] = Dissociation constant, pKa of the compound; type: physicochemical

| pKa [2] | Structure (SMILES) | Ki [1] [µM] |
| --- | --- | --- |
|  | O=C1Cc2ccccc2N1O | 510 |
| 7.92 | O=CN(O)c1ccccc1 | 2.79 |
|  | O=C(NO)c1ccccc1 [BENZOHYDROXAMATE] | 12 |
|  | O=NN(O)c1ccccc1 [CUPFERRON] | 2.67 |
